Assay results published in PubChem BioAssay (NCI).
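Assay format: 96-well plates, 48-hour exposure. GI50 = concentration required for 50% inhibition of growth. TGI denotes the concentration required for complete inhibition of growth.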

How the values were obtained:
Assay in all cases: DTP human tumour cell line panel, 48 h
[1] = system: M14 melanoma
[2] = system: SN12C renal
[3] = system: SK-MEL-28 melanoma
[4] = system: PC-3 prostate
[5] = system: MCF7 breast
[6] = system: SK-MEL-2 melanoma
[7] = system: NCI-H522 lung
[8] = system: T-47D breast
[9] = system: HS 578T breast
[10] = system: NCI-H23 lung
[11] = system: HL-60(TB) leukemia
[12] = system: OVCAR-3 ovarian
[13] = system: SK-MEL-5 melanoma
[14] = system: TK-10 renal
[15] = system: NCI-H460 lung
[16] = system: U251 CNS
[17] = system: HCT-15 colon
[18] = system: K-562 leukemia
[19] = system: HCT-116 colon
[20] = system: UO-31 renal
[21] = system: RXF 393 renal
[22] = system: HOP-62 NSCLC
[23] = system: SF-295 CNS
[24] = system: ACHN renal
[25] = system: HT29 colon
[26] = system: OVCAR-8 ovarian
[27] = system: UACC-62 melanoma
[28] = system: NCI/ADR-RES ovarian
[29] = system: SK-OV-3 ovarian
[30] = system: 786-0 renal
[31] = system: HCC-2998 colon
[32] = system: DU-145 prostate
[33] = system: IGROV1 ovarian
[34] = system: MDA-MB-435
[35] = system: LOX IMVI melanoma
[36] = system: SW-620 colon
[37] = system: SF-268 CNS
[38] = system: MOLT-4 leukemia
[39] = system: CCRF-CEM leukemia
[40] = system: SF-539 CNS
[41] = system: SNB-75 CNS
[42] = system: KM12 colon
[43] = system: HOP-92 NSCLC
[44] = system: OVCAR-4 ovarian
[45] = system: MALME-3M melanoma
[46] = system: EKVX NSCLC
[47] = system: SR leukemia
[48] = system: MDA-MB-231 breast
[49] = system: CAKI-1 renal
[50] = system: SNB-19 CNS
[51] = system: A498 renal
[52] = system: UACC-257 melanoma
[53] = system: COLO 205 colon
[54] = system: OVCAR-5 ovarian
[55] = system: RPMI-8226 leukemia
[56] = system: NCI-H226 lung

`O=C1Nc2ccccc2/C1=C\c1cccc(/C=C2/C(=O)Nc3ccccc32)n1` gave a GI50 [1] of 484 nM, a TGI [1] of 2110 nM and a GI50 [2] of 357 nM. It also gave a TGI [2] of 1360 nM, a GI50 [3] of 218 nM and a TGI [3] of 468 nM. It also gave a GI50 [4] of 654 nM, a TGI [4] of 3.31 µM and a GI50 [5] of 226 nM. The TGI [5] was 851 nM, the GI50 [6] was 631 nM and the TGI [6] was 1620 nM. The GI50 [7] was 208 nM, the TGI [7] was 705 nM and the GI50 [8] was 1130 nM. It also gave a TGI [8] of 3.4 µM, a GI50 [9] of 294 nM and a TGI [9] of 1310 nM. For the same molecule, the GI50 [10] was 855 nM, the TGI [10] was 2430 nM and the GI50 [11] was 452 nM. It also gave a GI50 [12] of 254 nM, a TGI [12] of 683 nM and a GI50 [13] of 242 nM. For the same molecule, the TGI [13] was 722 nM, the GI50 [14] was 416 nM and the TGI [14] was 1410 nM. For the same molecule, the GI50 [15] was 669 nM, the TGI [15] was 1850 nM and the GI50 [16] was 160 nM. The TGI [16] was 346 nM, the GI50 [17] was 219 nM and the TGI [17] was 618 nM. It also gave a GI50 [18] of 291 nM, a TGI [18] of over 37.9 µM and a GI50 [19] of 155 nM. It also gave a TGI [19] of 296 nM, a GI50 [20] of 779 nM and a TGI [20] of 2370 nM. For the same molecule, the GI50 [21] was 248 nM, the TGI [21] was 610 nM and the GI50 [22] was 1960 nM. The TGI [22] was 3.92 µM, the GI50 [23] was 499 nM and the TGI [23] was 2240 nM. The GI50 [24] was 308 nM, the TGI [24] was 1120 nM and the GI50 [25] was 226 nM. It also gave a TGI [25] of 529 nM, a GI50 [26] of 300 nM and a TGI [26] of 1130 nM. It also gave a GI50 [27] of 320 nM, a TGI [27] of 962 nM and a GI50 [28] of 689 nM. It also gave a TGI [28] of 6.47 µM, a GI50 [29] of 1210 nM and a TGI [29] of 2760 nM. It also gave a GI50 [30] of 1080 nM, a TGI [30] of 2490 nM and a GI50 [31] of 615 nM. The TGI [31] was 1770 nM, the GI50 [32] was 881 nM and the TGI [32] was 2260 nM. For the same molecule, the GI50 [33] was 440 nM, the TGI [33] was 1670 nM and the GI50 [34] was 355 nM. It also gave a TGI [34] of 1810 nM, a GI50 [35] of 190 nM and a TGI [35] of 440 nM. The GI50 [36] was 162 nM, the TGI [36] was 329 nM and the GI50 [37] was 362 nM. For the same molecule, the TGI [37] was 1390 nM, the GI50 [38] was 509 nM and the GI50 [39] was 356 nM. For the same molecule, the TGI [39] was over 100 µM, the GI50 [40] was 966 nM and the TGI [40] was 2230 nM. The GI50 [41] was 1320 nM, the TGI [41] was 3.46 µM and the GI50 [42] was 282 nM. It also gave a TGI [42] of 1020 nM, a GI50 [43] of 1480 nM and a TGI [43] of 4.49 µM. The GI50 [44] was 718 nM, the TGI [44] was 1990 nM and the GI50 [45] was 300 nM. For the same molecule, the TGI [45] was 1080 nM, the GI50 [46] was 692 nM and the TGI [46] was 8.74 µM. The GI50 [47] was 231 nM, the TGI [47] was 4.88 µM and the GI50 [48] was 1250 nM. The TGI [48] was 2770 nM, the GI50 [49] was 338 nM and the TGI [49] was 1270 nM. It also gave a GI50 [50] of 526 nM, a TGI [50] of 1980 nM and a GI50 [51] of 1500 nM. It also gave a TGI [51] of 2900 nM, a GI50 [52] of 241 nM and a TGI [52] of 633 nM. It also gave a GI50 [53] of 356 nM, a TGI [53] of 1570 nM and a GI50 [54] of 888 nM. It also gave a TGI [54] of 2400 nM, a GI50 [55] of 232 nM and a TGI [55] of 699 nM. For the same molecule, the GI50 [56] was 1530 nM and the TGI [56] was 5.13 µM.
